Entries after “also recorded” stand apart in the source; their conditions may differ. Positions of bridges follow the written chain, without caps; N, C: chain ends. Non-standard residues stand in square brackets, D forms with d. Residues, ends and D or L forms follow the SMILES beside them. hArg = N=C(N)NCCCC[C@H](N)C(=O)O; Mpa = O=C(O)CCS
B1: hu5C8: humanized monoclonal IgG1 antibody against CD40L, alternatively named anti-sCD40L or anti-CD154 (antibody, chains of the INN, looked up, V domains shown)
VH: QVQLVQSGAEVVKPGASVKLSCKASGYIFTSYYMYWVKQAPGQGLEWIGEINPSNGDTNFNEKFKSKATLTVDKSASTAYMELSSLRSEDTAVYYCTRSDGRNDMDSWGQGTLVTVSS
VL: DIVLTQSPATLSVSPGERATISCRASQRVSSSTYSYMHWYQQKPGQPPKLLIKYASNLESGVPARFSGSGSGTDFTLTISSVEPEDFATYYCQHSWEIPPTFGGGTKLEIK
B2: sCD40L: soluble CD40 ligand; recombinant human sCD40 Ligand (protein, UniProt P29965 113-261, looked up)
CD40 ligand, soluble form: MQKGDQNPQIAAHVISEASSKTTSVLQWAEKGYYTMSNNLVTLENGKQLTVKRQGLYYIYAQVTFCSNREASSQAPFIASLCLKSPGRFERILLRAANTHSSAKPCGQQSIHLGGVFELQPGASVFVNVTDPSQVSHGTGFTSFGLLKL
modifications: CD40 ligand, soluble form

What was measured:
[1] = test system: fibrin deposition on HUVEC endothelium; test: Vessel-On-Chip blood perfusion, fibrin deposition by fluorescence imaging; assay type: cell-based, human; conditions: for fibrin signal intensity (fibrin deposition on the endothelium): endothelial pre-treatment TNF-α 50 ng/ml 6 hours, or sCollagen 10 μg/ml in blood; for fibrin deposition on the endothelium compared to untreated blood: hu5C8 240 μg/mL, sCD40L 10 ng/ml, 4 donors, 60 μl/minute
Procedure: (§1) Adding Blood to a Vessel-On-Chip And Flow Conditions: A medical grade plastic reservoir was mounted on the chip, then 800 μl of the blood sample was pipetted into the reservoir. The chip was perfused with the blood by withdrawing it at a rate of 60 μl/minute using a syringe pump. The citrated blood was re-calcified 2 minutes after the beginning of each experiment by adding 100 μl/ml of a solution containing 100 mM calcium chloride and 75 mM magnesium chloride to the blood to permit calcium- and magnesium -dependent platelet function and coagulation.
Visualizing Fibrin Deposition: When analyzing the formation of fibrin, 10 μg/ml of fluorescently labeled fibrinogen (Alexa 488, Invitrogen) was also added to the blood. While fluorescent fibrinogen was barely detected as a diffused fluorescence, fibrin deposition on inflamed cells and sparse clots was easily distinguished since fibrin formed filamentous structures produce a signal intensity that is clearly observed above a background threshold.
(§2) Fluorescence Image Analysis: Chips perfused with blood samples were immediately imaged via fluorescence microscopy (Olympus IX83, 10× objective UPLFLN10X2 , Orca-Flash4.0 CMOS Camera). Each chamber was inspected along its entire length and 5 images (about 0.25 cm) were captured from the central area of the chamber. Image processing and quantification was performed with an automatic macro compiled in ImageJ and numerical values corresponding to platelet coverage or fibrin florescence were collected and statistically analyzed in Graphpad Prism V7.

[2] = test system: blood clots on endothelium; test: Imaging of blood clots formed on-chip (SEM, micrographs, 3D movie); assay type: cell-based, human; conditions: after blood perfusion
Procedure: Scanning Electron Microscopy Sample Pre-treatment and Imaging: Immediately after fluorescence imaging, the chips were fixed in 2.5% glutaraldehyde in 100 mM sodium cacodylate buffer for 2 hours at room temperature. Then, the samples were washed and post fixed in 1% osmium tetroxide for 1 hour at room temperature. After the postfixation, the samples were dehydrated in series dilutions of ethanol and finally completely dried in a Critical point dryer (Tousimus Autosamsri-815). After mounting, the samples were gold sputtered using a Sputter coating system (Hummer 6.2) and imaged by SEM (Jeol 5600LV).

[3] = test system: thrombin anti-thrombin complex (TAT); test: Thrombin-Anti Thrombin (TAT) ELISA in chip effluent; assay type: cell-based, human; conditions: FIG. 22B; plasma from blood flowing out of the chip
Procedure: Thrombin-Anti Thrombin (TAT) Measurement via ELISA: Thrombin Anti-Thrombin (TAT) levels were analyzed in plasma from blood flowing out of the chip device by removing a sample from the outflow port. Thus TAT levels were evaluated in sample effluents collected from the outflow port of the chip using the Human TAT ELISA Kit (Siemens Healthineers) according to the user manual.

[4] = test system: platelets in human whole blood on HUVEC endothelium; test: Vessel-On-Chip blood perfusion, platelet coverage by fluorescence imaging; assay type: cell-based; conditions: for areas of platelet coverage (platelet aggregation on the endothelium): endothelial pre-treatment TNF-α 50 ng/ml 6 hours, or sCollagen 10 μg/ml in blood; for platelet aggregate formation compared to untreated blood: hu5C8 240 μg/mL, sCD40L 10 ng/ml, 4 donors, 60 μl/minute
Procedure: Platelets: Platelets were labeled with human CD41-PE antibody (10 μL/ml, Invitrogen) directly added to the blood and incubated at room temperature for 5 minutes.
as §1, §2
Platelet Coverage: A percentage of signal coverage (or Platelet coverage) was computed from the binary image as the ratio of bright pixels to the total number of pixels in the image. Image processing and quantification was performed with an automatic macro compiled in ImageJ in order to ensure unbiased signal measurements. Numerical values corresponding to platelet coverage or fibrin fluorescence (signal intensity) were collected and statistically analyzed in Graphpad Prism V7.

[5] = test system: human whole blood on HUVEC endothelium; test: Vessel-On-Chip thrombosis, all endpoints together (platelet coverage, fibrin deposition, TAT); assay type: cell-based; conditions: adding Eptifibatide; n=4 donors
[6] = Eptifibatide 2 ug/ml, endothelium inflamed with TNF-α, n=4
[7] = Eptifibatide 2 ug/ml, following treatment with sCollagen, n=4

Molecule | fibrin signal intensity (fibrin deposition on the endothelium) [1] | structure of blood clots formed on-chip [2] | levels of TAT in outflow samples [3] | areas of platelet coverage (platelet aggregation on the endothelium) [4] | fibrin deposition on the endothelium compared to untreated blood [1] | platelet aggregate formation compared to untreated blood [4] | further results
sCollagen: soluble collagen (Soluble Calf Skin, Type I), a standard platelet activator | increased | meshwork of complex fibrin-rich clots that incorporated red blood cells and platelets; also recorded: high number of larger aggregates containing a platelet rich core decorated with fibrin | minimally increased; also recorded: elevated levels | increased | – | – | –
TNF-α | increased | compact clots composed of red blood cells and platelets, surrounded by fibrin; also recorded: high number of larger aggregates containing a platelet rich core decorated with fibrin | significantly increased; also recorded: elevated levels | increased | – | – | –
N=C(N)NCCCC[C@@H]1NC(=O)CCSSC[C@@H](C(N)=O)NC(=O)[C@@H]2CCCN2C(=O)[C@H](Cc2c[nH]c3ccccc23)NC(=O)[C@H](CC(=O)O)NC(=O)CNC1=O [Eptifibatide] ([Mpa][hArg]GDWPC-NH2; disulfide 1-7) | – | – | – | – | – | – | fibrin clot formation [1, 6]: significantly inhibited; inhibitory effect on fibrin clot formation [1, 7]: comparatively modest; fibrin signal (image analysis of multiple experiments) ([1]; Eptifibatide 2 ug/ml, samples treated with TNF-α): significant amount of fibrin signal was still detectable; pro-thrombotic effects (platelet coverage, fibrin deposition) of TNF-α and sCollagen / thrombotic events [5]: suppressed; also recorded: inhibited; platelet aggregation [4, 6]: significantly inhibited; inhibitory effect on platelet aggregation [4, 7]: comparatively modest; platelet adhesion (image analysis of multiple experiments) ([4]; Eptifibatide 2 ug/ml, n=4): completely inhibited
B1 | – | – | – | – | no significant treatment-related effects | no significant treatment-related effects | –
B2 | – | – | – | – | no significant treatment-related effects | no significant treatment-related effects | platelet coverage, fold-increase over untreated control ([4]; in some donors, sCD40L alone): about 2 fold; mean increase in platelet coverage compared to controls ([4]; sCD40L alone, up to 15 donors): not statistically significant
